Assay results published in US7541368B2, “Pyrazoles as inhibitors of tumor necrosis factor” (Aventis Pharmaceuticals Inc., priority 2003, dated 2009).

System: TNF-alpha release in THP-1 cells
Assay: LPS-induced TNF-alpha release in THP-1 cells
Format: cell-based
Details: Homo sapiens, THP-1, LPS-stimulated THP-1 cells; read-out: 50% inhibition in the LPS-induced TNF-alpha release in THP-1 cells assay at concentrations within the range
Description: The effects of compounds on TNF-alpha production by lipopolysaccharide (LPS)-stimulated […] monocytes were examined as follows.
Undifferentiated THP-1 cells were maintained in RPMI 1640 with Glutamax I containing β-mercaptoethananol (50 μM) and foetal calf serum (FCS-10%) at densities of about 1×10^6 cells per ml. For incubations without and with test reagents, cells were seeded at the indicated densities under serum-deprived (1% FCS) conditions. Compounds were dissolved in dimethylsulfoxide (DMSO-100%) and incubated with the cells to give a fmal DMSO concentration of 0.3%. Control and untreated cell samples were incubated with DMSO (0.3%).
THP-1 cells (1×10 ^6 cells/ml, total volume 150 μl) in culture medium were incubated for 1 hour (5% CO2, 37° C.) with fresh medium containing compounds or vehicle (0.1-0.3% dimethylsulfoxide). LPS (20 μg/ml) was then added to the cells and the incubation continued for a fuirther 18 hours. Cell supernatants were removed into 96 well plates for storage at −20° C.
TNF-alpha concentrations in cell supernatants were quantified by sandwich ELISA. Briefly, ELISA plates were coated overnight with 2 μg/ml of mouse anti-human TNF-alpha antibody in bicarbonate buffer (pH 9.9). After washing the wells with wash buffer (0.05% (v/v) Tween in PBS)and blocking unoccupied sites (1% BSA in wash buffer), monocyte supernatant samples or human recombinant TNF-alpha standards were added into the corresponding wells of the ELISA plate at 1:10 dilution. Biotinylated rabbit polyclonal anti-human TNF-alpha antibody (3 μg/ml) was used as the second antibody and streptavidin-horseradish peroxidase was used as the detection antibody. The peroxidase substrate is 3,3′,5,5′-tetramethylbenzidine (TMB) in the presence of hydrogen peroxide.
TNFα concentrations in supernatants from control and LPS-stimulated monocyte incubations were calculated by interpolation from a standard (log/log) curve (0.125-16 ng/ml) fitted by Excel Fit using the Activity Base software. Compounds were tested within the concentration range of 1×10^−9M to 1×10^−6M.

Structure (SMILES) | IC50 [nM]
Cc1ccc(-n2nc(C(C)(C)C)cc2NC(=O)Nc2ccc(CC3CCN(C(=O)c4ccc5cnccc5n4)CC3)cc2)cc1 [Compound A197, 1-(5-tert-Butyl-2-p-tolyl-2H-pyrazol-3-yl)-3-{4-[1-([1,6]naphthyridine-2-carbonyl)-piperidin-4-ylmethyl]-phenyl}-urea] | 10 to 500
Cc1ccc(-n2nc(C(C)(C)C)cc2NC(=O)Nc2ccc(CC3CCN(C(=O)C4(C)CC4)CC3)cc2)cc1 [Compound A206, 1-(5-tert-Butyl-2-p-tolyl-2H-pyrazol-3-yl)-3-{4-[1-(1-methyl-cyclopropanecarbonyl)-piperidin-4-ylmethyl]-phenyl}-urea] | 10 to 500
COc1cccc(C(=O)N2CCC(Cc3ccc(NC(=O)Nc4cc(C(C)(C)C)nn4-c4ccc(C)cc4)cc3)CC2)c1OC [Compound A212, 1-(5-tert-Butyl-2-p-tolyl-2H-pyrazol-3-yl)-3-{4-[1-(2,3-dimethoxy-benzoyl)-piperidin-4-ylmethyl]-phenyl}-urea] | 10 to 500
COc1cccc(CC(=O)N2CCC(Cc3ccc(NC(=O)Nc4cc(C(C)(C)C)nn4-c4ccc(C)cc4)cc3)CC2)c1OC [Compound A213, 1-(5-tert-Butyl-2-p-tolyl-2H-pyrazol-3-yl)-3-(4-{1-[2-(2,3-dimethoxy-phenyl)-acetyl]-piperidin-4-ylmethyl}-phenyl)-urea] | 10 to 500
COc1cc(OC)c(C(=O)N2CCC(Cc3ccc(NC(=O)Nc4cc(C(C)(C)C)nn4-c4ccc(C)cc4)cc3)CC2)c(OC)c1 [Compound A215, 1-(5-tert-Butyl-2-p-tolyl-2H-pyrazol-3-yl)-3-{4-[1-(2,4,6-trimethoxy-benzoyl)-piperidin-4-ylmethyl]-phenyl}-urea] | 10 to 500
Cc1ccc(-n2nc(C(C)(C)C)cc2NC(=O)Nc2ccc(CC3CCN(C(=O)c4c(C)cc(C)cc4C)CC3)cc2)cc1 [Compound A216, 1-(5-tert-Butyl-2-p-tolyl-2H-pyrazol-3-yl)-3-{4-[1-(2,4,6-trimethyl-benzoyl)-piperidin-4-ylmethyl]-phenyl}-urea] | 10 to 500
Cc1ccc(-n2nc(C(C)(C)C)cc2NC(=O)Nc2ccc(CC3CCN(C(=O)c4cc(C)oc4C)CC3)cc2)cc1 [Compound A222, 1-(5-tert-Butyl-2-p-tolyl-2H-pyrazol-3-yl)-3-{4-[1-(2,5-dimethyl-furan-3-carbonyl)-piperidin-4-ylmethyl]-phenyl}-urea] | 10 to 500
COc1ccc(C(=O)N2CCC(Cc3ccc(NC(=O)Nc4cc(C(C)(C)C)nn4-c4ccc(C)cc4)cc3)CC2)c(OC)n1 [Compound A224, 1-(5-tert-Butyl-2-p-tolyl-2H-pyrazol-3-yl)-3-{4-[1-(2,6-dimethoxy-pyridine-3-carbonyl)-piperidin-4-ylmethyl]-phenyl}-urea] | 10 to 500
Cc1ccc(-n2nc(C(C)(C)C)cc2NC(=O)Nc2ccc(CC3CCN(C(=O)c4csc(-c5cccnc5)n4)CC3)cc2)cc1 [Compound A225, 1-(5-tert-Butyl-2-p-tolyl-2H-pyrazol-3-yl)-3-{4-[1-(2-pyridin-3-yl-thiazole-4-carbonyl)-piperidin-4-ylmethyl]-phenyl}-urea] | 10 to 500
Cc1ccc(-n2nc(C(C)(C)C)cc2NC(=O)Nc2ccc(CC3CCN(C(=O)c4csc(-c5ccncc5)n4)CC3)cc2)cc1 [Compound A227, 1-(5-tert-Butyl-2-p-tolyl-2H-pyrazol-3-yl)-3-{4-[1-(2-pyridin-4-yl-thiazole-4-carbonyl)-piperidin-4-ylmethyl]-phenyl}-urea] | 10 to 500
Cc1ccc(-n2nc(C(C)(C)C)cc2NC(=O)Nc2ccc(CC3CCN(C(=O)c4cccnc4N)CC3)cc2)cc1 [Compound A231, 1-{4-[1-(2-Amino-pyridine-3-carbonyl)-piperidin-4-ylmethyl]-phenyl}-3-(5-tert-butyl-2-p-tolyl-2H-pyrazol-3-yl)-urea] | 10 to 500
Cc1ccc(-n2nc(C(C)(C)C)cc2NC(=O)Nc2ccc(CC3CCN(C(=O)c4cc5ccccc5o4)CC3)cc2)cc1 [Compound A232, 1-{4-[1-(Benzofuran-2-carbonyl)-piperidin-4-ylmethyl]-phenyl}-3-(5-tert-butyl-2-p-tolyl-2H-pyrazol-3-yl)-urea] | 10 to 500
Cc1ccc(-n2nc(C(C)(C)C)cc2NC(=O)Nc2ccc(CC3CCN(C(=O)c4ccc(S(C)(=O)=O)cc4Cl)CC3)cc2)cc1 [Compound A233, 1-(5-tert-Butyl-2-p-tolyl-2H-pyrazol-3-yl)-3-{4-[1-(2-chloro-4-methanesulfonyl-benzoyl)-piperidin-4-ylmethyl]-phenyl}-urea] | 10 to 500
Cc1ccc(-n2nc(C(C)(C)C)cc2NC(=O)Nc2ccc(CC3CCN(C(=O)c4cccnc4Cl)CC3)cc2)cc1 [Compound A235, 1-(5-tert-Butyl-2-p-tolyl-2H-pyrazol-3-yl)-3-{4-[1-(2-chloro-pyridine-3-carbonyl)-piperidin-4-ylmethyl]-phenyl}-urea] | 10 to 500
Cc1ccc(-n2nc(C(C)(C)C)cc2NC(=O)Nc2ccc(CC3CCN(C(=O)Cc4ccccc4F)CC3)cc2)cc1 [Compound A236, 1-(5-tert-Butyl-2-p-tolyl-2H-pyrazol-3-yl)-3-(4-{1-[2-(2-fluoro-phenyl)-acetyl]-piperidin-4-ylmethyl}-phenyl)-urea] | 10 to 500
Cc1ccc(-n2nc(C(C)(C)C)cc2NC(=O)Nc2ccc(CC3CCN(C(=O)c4ccco4)CC3)cc2)cc1 [Compound A237, 1-(5-tert-Butyl-2-p-tolyl-2H-pyrazol-3-yl)-3-{4-[1-(furan-2-carbonyl)-piperidin-4-ylmethyl]-phenyl}-urea] | 10 to 500
CCCCC#CC(=O)N1CCC(Cc2ccc(NC(=O)Nc3cc(C(C)(C)C)nn3-c3ccc(C)cc3)cc2)CC1 [Compound A238, 1-(5-tert-Butyl-2-p-tolyl-2H-pyrazol-3-yl)-3-[4-(1-hept-2-ynoyl-piperidin-4-ylmethyl)-phenyl]-urea] | 10 to 500
Cc1ccc(-n2nc(C(C)(C)C)cc2NC(=O)Nc2ccc(CC3CCN(C(=O)c4cc(O)nc5ccccc45)CC3)cc2)cc1 [Compound A240, 1-(5-tert-Butyl-2-p-tolyl-2H-pyrazol-3-yl)-3-{4-[1-(2-hydroxy-quinoline-4-carbonyl)-piperidin-4-ylmethyl]-phenyl}-urea] | 10 to 500
Cc1ccc(-n2nc(C(C)(C)C)cc2NC(=O)Nc2ccc(CC3CCN(C(=O)c4cc5cnccc5nc4C)CC3)cc2)cc1 [Compound A243, 1-(5-tert-Butyl-2-p-tolyl-2H-pyrazol-3-yl)-3-{4-[1-(2-methyl-[1,6]naphthyridine-3-carbonyl)-piperidin-4-ylmethyl]-phenyl}-urea] | 10 to 500
Cc1ccc(-n2nc(C(C)(C)C)cc2NC(=O)Nc2ccc(CC3CCN(C(=O)c4ccoc4C)CC3)cc2)cc1 [Compound A244, 1-(5-tert-Butyl-2-p-tolyl-2H-pyrazol-3-yl)-3-{4-[1-(2-methyl-furan-3-carbonyl)-piperidin-4-ylmethyl]-phenyl}-urea] | 10 to 500
Cc1ccc(-n2nc(C(C)(C)C)cc2NC(=O)Nc2ccc(CC3CCN(C(=O)c4cc5cccnc5nc4C)CC3)cc2)cc1 [Compound A249, 1-(5-tert-Butyl-2-p-tolyl-2H-pyrazol-3-yl)-3-{4-[1-(2-methyl-[1,8]naphthyridine-3-carbonyl)-piperidin-4-ylmethyl]-phenyl}-urea] | 10 to 500
Cc1ccc(-n2nc(C(C)(C)C)cc2NC(=O)Nc2ccc(CC3CCN(C(=O)c4cccnc4C)CC3)cc2)cc1 [Compound A251, 1-(5-tert-Butyl-2-p-tolyl-2H-pyrazol-3-yl)-3-{4-[1-(2-methyl-pyridine-3-carbonyl)-piperidin-4-ylmethyl]-phenyl}-urea] | 10 to 500
Cc1ccc(-n2nc(C(C)(C)C)cc2NC(=O)Nc2ccc(CC3CCN(C(=O)c4cnc5ccccc5n4)CC3)cc2)cc1 [Compound A257, 1-(5-tert-Butyl-2-p-tolyl-2H-pyrazol-3-yl)-3-{4-[1-(quinoxaline-2-carbonyl)-piperidin-4-ylmethyl]-phenyl}-urea] | 10 to 500
Cc1ccc(-n2nc(C(C)(C)C)cc2NC(=O)Nc2ccc(CC3CCN(C(=O)C4CCCO4)CC3)cc2)cc1 (centres unmarked) [Compound A258, 1-(5-tert-Butyl-2-p-tolyl-2H-pyrazol-3-yl)-3-{4-[1-(tetrahydro-furan-2-carbonyl)-piperidin-4-ylmethyl]-phenyl}-urea] | 10 to 500
COc1ccc(C(=O)N2CCC(Cc3ccc(NC(=O)Nc4cc(C(C)(C)C)nn4-c4ccc(C)cc4)cc3)CC2)cc1OC [Compound A261, 1-(5-tert-Butyl-2-p-tolyl-2H-pyrazol-3-yl)-3-{4-[1-(3,4-dimethoxy-benzoyl)-piperidin-4-ylmethyl]-phenyl}-urea] | 10 to 500
COc1ccc(CC(=O)N2CCC(Cc3ccc(NC(=O)Nc4cc(C(C)(C)C)nn4-c4ccc(C)cc4)cc3)CC2)cc1OC [Compound A262, 1-(5-tert-Butyl-2-p-tolyl-2H-pyrazol-3-yl)-3-(4-{1-[2-(3,4-dimethoxy-phenyl)-acetyl]-piperidin-4-ylmethyl}-phenyl)-urea] | 10 to 500
